Assay results: US5595973A, “Protection of hemopoietic cells during chemotherapy or radiotherapy” (Biomeasure Incorporated, priority 1994, dated 1997)

Legend:
Assay type in all cases: in vivo, BALB/C mice
Conditions in all cases: Group 2 (Ara-C+GM-CSF) vs Group 1 (Ara-C)
[1] = tested on: hemopoietic cells; assay: Proliferation of hemopoietic cells and tolerance of multiple cycles of Ara-C chemotherapy
Experimental: (§1) A number of assays were performed to show the effect of combining the hemopoiesis inhibitory factor and hemopoiesis growth factor on the proliferation of hemopoietic cells during chemotherapy.
(§2) Three groups of BALB/C mice were used in this study. Mice of the three groups were treated as follows (i.e., with Ara-C, the abbreviation of cytosine arabinoside, as the cytotoxic agent, AcSDKP as the hemopoiesis inhibitory factor, and GM-CSF as the hemopoiesis growth factor):
(§3) In each group, the animals were subjected to a sequence of three cycles of chemotherapy, i.e., Cycle I (Days 0-20), Cycle II (Days 21-37), and Cycle III (Days 38-56). Note that animals in each group were sacrificed on specific days for collection of blood samples, eliminating the artifact that may have been induced by intensive repetitive bleedings of the same animals.
(§4) Minipump implantations and excisions: The 200 μl capacity ALZET™ osmotic minipump Model 2001 (Alza Corporation, Palo Alto, Calif.) primed to deliver 1.0 μL/hour for 7 days was used for continuously administering the 100 ng/hour of AcSDKP in each cycle. More specifically, during each cycle, AcSDKP primed pumps were implanted s.c. prior to the first administration of Ara-C in the A.M. of day zero and excised in the A.M. of day 7. The first administration of Ara-C was in the A.M. of day zero and the last administration in the A.M. of day 6 (q.d., or once per day).
Treatment cycle: For the animals of Group 3, each cycle consists of a period in which Ara-C and AcSDKP were administered, a period in which the administered Ara-C and AcSDKP were purged, a period in which GM-CSF was administered, and, finally, a further recovery period. More specifically, after 7 consecutive days of Ara-C treatment during which time AcSDKP was administered by continuous s.c. infusion (see the preceding paragraph), a 2-day period followed so as to allow for purging of both AcSDKP and Ara-C. […]

[2] = tested on: white blood cells; assay: White blood cell counts in mice during three cycles of Ara-C chemotherapy
Experimental: as §1, §2, §3, §4
(§5) Treatment cycle: For the animals of Group 3, each cycle consists of a period in which Ara-C and AcSDKP were administered, a period in which the administered Ara-C and AcSDKP were purged, a period in which GM-CSF was administered, and, finally, a further recovery period. More specifically, after 7 consecutive days of Ara-C treatment during which time AcSDKP was administered by continuous s.c. infusion (see the preceding paragraph), a 2-day period followed so as to allow for purging of both AcSDKP and Ara-C. GM-CSF was then administered for 4 days (b.i.d., or twice per day), and the animals were permitted 4-8 more days at the end of the GM-CSF administration to recover before the initiation of the subsequent cycle (as in Cycles I and II) or before the collection of the last blood samples (as in Cycle III).
(§6) Blood sample collection: Blood samples (maximum attainable volume) for clinical pathology evaluations were collected from mice at euthanasia. The mice were food-fasted overnight prior to blood collection and samples were collected by puncture of the retro-orbital sinus after anesthetization by CO2 inhalation.
(§7) Analysis of blood samples: Hematology data were collected electronically and processed by the HUMMINGBIRD™ computer system (Laboratories Consulting, Inc., Madison, Wis.). Blood samples were processed and evaluated for the parameters specified (polymorphonuclear cell, platelet, and white blood cell counts in 10^3 cells/[…] as shown in Tables 2 and 3) using a Sysmex TOAE-2500 hematology analyzer (TOA Medical Electronics, Kobe, Japan).
(§8) See the right-hand column "percent change," i.e., (cell count from Group 2/cell count from Group 1)×100%, in Table 2. The data in Table 2 (as well as in Table 3) are log transformed to minimize the effect of outliers and the geometric means of the data are used for the analyses. The difference in the means between two test groups are compared for each of three different stages, i.e., chemotherapy (days 0-4, 21-25 and 38-42 in Cycles I, II and III, respectively), nadir (days 5-10, 26-31 and 43-48 in Cycles I, II and III, respectively), or recovery (days 11-20, 32-37 and 49-56 in Cycles I, II and III, respectively). Significant differences are marked by a large dot, which stands for P<0.003, a statistically significant p-value for data compared between two groups combined over the three cycles.

[3] = tested on: polymorphonuclear cells; assay: Polymorphonuclear cell counts in mice during three cycles of Ara-C chemotherapy
Experimental: as §1, §2, §3, §4, §5, §6, §7
as §8, with “The” for “See the right-hand column "percent change," i.e., (cell count from Group 2/cell count from Group 1)×100%, in Table 2. The”

[4] = tested on: platelets; assay: Platelet counts in mice during three cycles of Ara-C chemotherapy
Experimental: as §1, §2, §3, §4, §5, §6, §7, §8

[5] = Cycle I, Chemotherapy (days 0-4)
[6] = Cycle II, Chemotherapy (days 21-25)
[7] = Cycle II, Recovery (days 32-37)
[8] = Cycle III, Chemotherapy (days 38-42)
[9] = Cycle III, Recovery (days 49-56)

GM-CSF: granulocyte/macrophage-colony stimulating factor, the hemopoiesis growth factor, procured from Immunix Research and Development Corp.
Ability of the animals to tolerate multiple cycles of chemotherapy [1]: did not enhance
Percent change, white blood cell count [2, 5]: -9.1838%
Percent change, white blood cell count ([2]; Cycle I, Nadir (days 5-10)): 17.5916%
Percent change, white blood cell count ([2]; Cycle I, Recovery (days 11-20)): 5.3418%
Percent change, white blood cell count [2, 6]: 43.1551%
Percent change, white blood cell count ([2]; Cycle II, Nadir (days 26-31)): 40.2987%
Percent change, white blood cell count [2, 7]: -7.2022%
Percent change, white blood cell count [2, 8]: 7.717%
Percent change, white blood cell count ([2]; Cycle III, Nadir (days 43-48)): -9.5103%
Percent change, white blood cell count [2, 9]: -0.8913%
White blood cell counts, change in words ([2]; recovery period of Cycles II and III): decreased
Percent change, polymorphonuclear cell count [3, 5]: -0.2001%
Percent change, polymorphonuclear cell count ([3]; Cycle I, Nadir (days 5-10)): 23.1962%
Percent change, polymorphonuclear cell count ([3]; Cycle I, Recovery (days 11-20)): 21.7299%
Percent change, polymorphonuclear cell count [3, 6]: 19.8969%
Percent change, polymorphonuclear cell count ([3]; Cycle II, Nadir (days 26-31)): 9.4827%
Percent change, polymorphonuclear cell count [3, 7]: -10.9401%
Percent change, polymorphonuclear cell count [3, 8]: 29.7855%
Percent change, polymorphonuclear cell count ([3]; Cycle III, Nadir (days 43-48)): 1.6526%
Percent change, polymorphonuclear cell count [3, 9]: -0.7213%
Percent change, platelet count [4, 5]: 30.5966%
Percent change, platelet count ([4]; Cycle I, Nadir (days 5-10)): 0.0332%
Percent change, platelet count ([4]; Cycle I, Recovery (days 11-20), marked significant): 10.6804%
Percent change, platelet count [4, 6]: 0.5878%
Percent change, platelet count ([4]; Cycle II, Nadir (days 26-31)): 0.0259%
Percent change, platelet count ([4]; Cycle II, Recovery (days 32-37), marked significant): 20.4577%
Percent change, platelet count [4, 8]: 15.5436%
Percent change, platelet count ([4]; Cycle III, Nadir (days 43-48)): 14.0708%
Percent change, platelet count ([4]; Cycle III, Recovery (days 49-56), marked significant): 11.9135%
Platelet counts, change in words ([4]; recovery periods, three cycles combined, p=0.0003): significantly increased
